According to paper PMC6556873, “Rapid Covalent-Probe Discovery by Electrophile-Fragment Screening” (Journal of the American Chemical Society, 2019):
Read-outs that look alike come from different tables or passages of the source.

Experiments:
[1] = in vitro; parameters: species or system HB2, HEK293; conditions: human, ccd841 cells
[2] = target: T1, OTUB2 (OTUB2A) (Homo sapiens, UniProt Q96DC9); parameters: Intact protein LC/MS covalent labelling, fragments in pools of five, 200 uM each, 4 °C; conditions: 24 h, 4 °C, pool of five; 200 µM; covalent
T1 construct: full length residues 1-234, E. coli BL21(DE3)-R3, His tag removed by TEV, construct 27312 Da
T1 sequence (Q96DC9 1-234): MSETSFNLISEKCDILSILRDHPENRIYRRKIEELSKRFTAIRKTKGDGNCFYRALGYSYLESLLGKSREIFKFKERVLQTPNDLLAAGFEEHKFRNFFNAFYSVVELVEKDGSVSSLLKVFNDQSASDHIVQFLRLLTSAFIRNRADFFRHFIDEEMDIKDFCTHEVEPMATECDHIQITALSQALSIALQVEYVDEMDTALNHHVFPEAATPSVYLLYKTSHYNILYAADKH

[3] = target: T2, NNMT (hNNMT) (Homo sapiens, UniProt P40261); parameters: Intact protein LC/MS covalent labelling, fragments in pools of five, 200 uM each, 4 °C; conditions: 24 h, 4 °C, pool of five; 200 µM; covalent
T2 construct: wild type, N-terminal His6 tag kept (no cleavage described), E. coli, construct 31248 Da
T2 sequence (P40261 1-264): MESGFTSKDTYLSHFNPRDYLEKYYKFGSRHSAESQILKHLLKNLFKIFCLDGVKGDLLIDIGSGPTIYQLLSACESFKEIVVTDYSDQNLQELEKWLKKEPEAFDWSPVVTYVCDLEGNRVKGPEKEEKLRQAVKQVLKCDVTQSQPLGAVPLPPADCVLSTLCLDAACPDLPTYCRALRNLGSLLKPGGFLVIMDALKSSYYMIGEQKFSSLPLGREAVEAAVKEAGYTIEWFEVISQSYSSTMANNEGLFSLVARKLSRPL

[4] = target: T3, BSA (Bos taurus, UniProt P02769); parameters: Intact protein LC/MS covalent labelling, fragments in pools of five, 200 uM each, 4 °C; conditions: 24 h, 4 °C, pool of five; 200 µM; covalent
T3 construct: gene ALB
T3 sequence (P02769 whole entry, the tested form may be a part): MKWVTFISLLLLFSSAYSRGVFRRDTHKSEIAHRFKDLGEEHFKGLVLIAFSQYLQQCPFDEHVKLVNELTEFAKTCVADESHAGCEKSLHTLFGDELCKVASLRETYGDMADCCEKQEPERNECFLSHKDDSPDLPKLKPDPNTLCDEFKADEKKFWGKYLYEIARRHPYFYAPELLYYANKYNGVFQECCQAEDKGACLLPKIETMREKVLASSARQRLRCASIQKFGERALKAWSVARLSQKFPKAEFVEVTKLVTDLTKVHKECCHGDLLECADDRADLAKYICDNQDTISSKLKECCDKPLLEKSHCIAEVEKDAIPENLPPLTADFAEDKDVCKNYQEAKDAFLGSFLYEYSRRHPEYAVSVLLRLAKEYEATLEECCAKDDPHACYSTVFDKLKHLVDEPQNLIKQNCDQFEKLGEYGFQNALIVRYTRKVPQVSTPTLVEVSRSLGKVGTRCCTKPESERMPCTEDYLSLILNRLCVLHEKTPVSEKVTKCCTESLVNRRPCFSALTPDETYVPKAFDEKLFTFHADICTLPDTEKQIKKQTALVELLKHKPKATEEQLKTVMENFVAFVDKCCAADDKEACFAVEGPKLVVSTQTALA

[5] = target: T4, PCAF (Homo sapiens, UniProt Q92831); parameters: Intact protein LC/MS covalent labelling, fragments in pools of five, 200 uM each, 4 °C; conditions: 24 h, 4 °C, pool of five; 200 µM; covalent
T4 construct: gene KAT2B
T4 sequence (Q92831 whole entry, the tested form may be a part): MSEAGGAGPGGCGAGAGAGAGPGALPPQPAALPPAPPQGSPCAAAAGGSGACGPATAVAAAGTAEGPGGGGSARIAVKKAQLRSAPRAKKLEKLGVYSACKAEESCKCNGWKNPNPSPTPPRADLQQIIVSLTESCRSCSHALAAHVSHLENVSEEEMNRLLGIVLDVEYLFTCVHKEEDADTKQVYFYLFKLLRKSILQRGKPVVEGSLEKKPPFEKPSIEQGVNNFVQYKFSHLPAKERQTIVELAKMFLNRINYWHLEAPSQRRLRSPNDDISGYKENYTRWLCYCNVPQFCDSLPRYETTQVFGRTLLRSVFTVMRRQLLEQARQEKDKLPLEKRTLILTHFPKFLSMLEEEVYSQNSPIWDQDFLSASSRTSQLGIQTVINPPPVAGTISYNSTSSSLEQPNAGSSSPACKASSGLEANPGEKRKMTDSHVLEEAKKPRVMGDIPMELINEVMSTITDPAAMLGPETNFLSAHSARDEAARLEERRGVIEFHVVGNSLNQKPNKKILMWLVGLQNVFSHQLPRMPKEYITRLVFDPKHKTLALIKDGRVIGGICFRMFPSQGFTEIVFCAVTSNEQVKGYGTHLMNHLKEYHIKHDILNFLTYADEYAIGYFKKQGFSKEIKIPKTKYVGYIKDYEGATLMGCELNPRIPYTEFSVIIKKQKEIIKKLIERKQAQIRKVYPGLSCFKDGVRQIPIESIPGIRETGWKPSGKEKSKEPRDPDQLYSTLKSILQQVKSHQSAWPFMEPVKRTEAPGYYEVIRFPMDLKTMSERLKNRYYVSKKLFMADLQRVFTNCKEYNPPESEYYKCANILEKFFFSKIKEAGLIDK

[6] = target: T5, NUDT7 (Homo sapiens, UniProt P0C024); parameters: Intact protein LC/MS covalent labelling, fragments in pools of five, 200 uM each, 4 °C; conditions: 24 h, 4 °C, pool of five; 200 µM; covalent
T5 construct: residues 14-235, E. coli, pNIC28-Bsa4, N-terminal His6 tag removed by TEV, construct 26672 Da
T5 sequence (P0C024 14-235): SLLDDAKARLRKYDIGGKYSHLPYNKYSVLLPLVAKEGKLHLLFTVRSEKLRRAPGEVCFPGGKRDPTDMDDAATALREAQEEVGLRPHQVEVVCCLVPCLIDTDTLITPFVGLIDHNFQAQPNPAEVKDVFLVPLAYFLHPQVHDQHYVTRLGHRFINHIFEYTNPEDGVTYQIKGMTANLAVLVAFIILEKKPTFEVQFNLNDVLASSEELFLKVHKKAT

[7] = in vitro; parameters: species or system CCD841, HEK293; conditions: human, hb2 cells, read-out: HB-2 Cells Viability (%)
[8] = in vitro; parameters: species or system HB2, CCD841; conditions: human, hek293 cells

| Structure (SMILES) | viability at 48 h, 10 µM [1] | OTUB2 [2] | NNMT [3] | BSA [4] | PCAF [5] | NUDT7 [6] | viability at 48 h, 10 µM [7] | viability at 48 h, 10 µM [8] |
| --- | --- | --- | --- | --- | --- | --- | --- | --- |
| COc1ccc(Cl)cc1C(=O)NNC(=O)CCl [PCM-0102763] | 13.4% | 0.64 | 0 | 0 | 0 | 0.1 | 73.6% | 25.1% |
| C=CC(=O)N1CCCc2c([nH]c3c(F)cccc23)C1 [PCM-0102767] | 96.6% | 0 | 0 | 0.1 | 0 | 0 | 89.2% | 96% |
| CC(C)(C)C(NC(=O)CCl)c1cccs1 (stereo not shown) [PCM-0102773] | 72.8% | 0 | 0 | 0 | 0 | 0.09 | 86.9% | 63.6% |
| O=C(CCl)NNC(=O)C1CC1 [PCM-0102776] | 88.4% | 0.23 | 0 | 0 | 0 | 0 | 93.1% | 90.2% |
| O=C(CCl)N1CCc2ccc([N+](=O)[O-])cc21 [PCM-0102777] | 2.6% | 0 | 0.61 | 0 | 0 | 0 | 1.7% | 17.9% |
| O=C(CCl)Nc1nnn[nH]1 [PCM-0102778] | 102% | 0.3 | 0 | 0 | 0 | 0 | 102% | 120% |
| O=C(CCl)Nc1nnc(CC(F)(F)F)o1 [PCM-0102779] | 99.9% | 0 | 0.24 | 0 | 0 | 0 | 106% | 102% |
| O=C(CCl)N1CCC(C(=O)N2CCCCCC2)CC1 [PCM-0102781] | 92.5% | 0 | 0 | 0 | 0 | 0 | 90.6% | 63.8% |
| O=C(CCl)Nc1nc(-c2cccs2)cs1 [PCM-0102784] | 84.9% | 0.07 | 0.71 | 0 | 0 | 0.77 | 39.8% | 41.3% |
| COC(=O)NC(=O)CCl [PCM-0102791] | 123% | 0.09 | 0 | 0 | 0 | 0 | 106% | 94.3% |
| O=C(CCl)NC(=O)c1ccc[nH]1 [PCM-0102795] | 100% | 0 | 0 | 0 | 0 | 0 | 96.2% | 149% |
| O=C(CCl)Nc1cccc(Cl)c1Cl [PCM-0102797] | 72.2% | 0 | 0 | 0 | 0 | 0.15 | 44.2% | 40.9% |
| CC(NC(=O)CCl)c1ccco1 (stereo not shown) [PCM-0102798] | 97.1% | 0.19 | 0 | 0 | 0 | 0.14 | 95.8% | 88.4% |
| Cc1cc(Br)ccc1NC(=O)CCl [PCM-0102799] | 63.3% | 0.61 | 0.39 | 0 | 0 | 0.24 | 34.9% | 4.7% |
